Assay results: ChEMBL document CHEMBL1158313, “Isolation of New Steroidal Hemiacetals from the Gorgonian Euplexaura anastomosans” (J Nat Prod, 1996)
Activity calls are given as the source filed them. No cut-off for these calls is given here.

Columns and labels:
P388 = assay: Cytotoxicity against mouse P388 cells; type: functional, cell-based
Artemia = assay: Toxicity against brine shrimp larvae; type: organism-based; conditions: in vivo

Row | Structure (SMILES) | Activity (P388) | Activity (Artemia)
1 | CC(C)[C@H]1CC[C@H]([C@@]2(O)CC[C@H]3[C@@H]4CCC5=CC(=O)CC[C@]5(C)[C@H]4CC[C@@]32C)[C@H](O)O1 [ANASTOMOSACETAL C] | inactive | Non-toxic
2 | CC(C)[C@H]1CC[C@H]([C@@]2(O)CC[C@H]3[C@@H]4CC[C@H]5CC(=O)CC[C@]5(C)[C@H]4CC[C@@]32C)[C@H](O)O1 [ANASTOMOSACETAL D] | inactive | Non-toxic
3 | CC(C)[C@H]1CC[C@H]([C@@]2(O)CC[C@H]3[C@@H]4CC[C@H]5CC(=O)C=C[C@]5(C)[C@H]4CC[C@@]32C)[C@H](O)O1 [ANASTOMOSACETAL B] | inactive | Non-toxic
4 | CC(C)[C@H]1CC[C@H]([C@@]2(O)CC[C@H]3[C@@H]4CCC5=CC(=O)C=C[C@]5(C)[C@H]4CC[C@@]32C)[C@H](O)O1 [ANASTOMOSACETAL A] | inactive | Non-toxic
